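Method: 48-hour compound exposure of cells in 96-well plates, five concentrations, linear interpolation of endpoints. Abbreviation: GI50, concentration required for 50% inhibition of growth.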 Calls of active or inactive are those of the source. Cut-off read from the data, not from the text of the source: active = GI50 up to about 1.1 µM and inactive = higher.
How the values were obtained:
Test in all cases: NCI tumour cell line growth inhibition, 48 h
SF-539 = tested on: SF-539
SF-268 = tested on: SF-268
MOLT-4 = tested on: MOLT-4
SK-MEL-28 = tested on: SK-MEL-28
UACC-257 = tested on: UACC-257
HCC 2998 = tested on: HCC 2998
NCI-H226 = tested on: NCI-H226
MDA-MB-231 = tested on: MDA-MB-231
HCT-15 = tested on: HCT-15
NCI/ADR-RES = tested on: NCI/ADR-RES
A498 = tested on: A498
SNB-75 = tested on: SNB-75
DU-145 = tested on: DU-145
SK-MEL-5 = tested on: SK-MEL-5
Malme-3M = tested on: Malme-3M
HT-29 = tested on: HT-29
ACHN = tested on: ACHN
KM12 = tested on: KM12
MCF7 = tested on: MCF7

Structure (SMILES)	GI50 (SF-539)	GI50 (SF-268)	GI50 (MOLT-4)	GI50 (SK-MEL-28)	GI50 (UACC-257)	GI50 (HCC 2998)	GI50 (NCI-H226)	GI50 (MDA-MB-231)	GI50 (HCT-15)	GI50 (NCI/ADR-RES)	GI50 (A498)	GI50 (SNB-75)	GI50 (DU-145)	GI50 (SK-MEL-5)	GI50 (Malme-3M)	GI50 (HT-29)	GI50 (ACHN)	GI50 (KM12)	GI50 (MCF7)
O=C(O)[C@@H]1C2CC([C@@H]1C(=O)O)[C@H](N1C(=O)CCC1=O)[C@@H]2Br (stereo not given in full)	> 100 µM (inactive)	> 100 µM (inactive)	> 100 µM (inactive)	> 100 µM (inactive)	> 100 µM (inactive)	> 100 µM (inactive)	> 100 µM (inactive)	> 100 µM (inactive)	> 100 µM	> 100 µM (inactive)	> 100 µM (inactive)	84.5 µM (inactive)	> 100 µM (inactive)	> 100 µM (inactive)	> 100 µM (inactive)	> 100 µM (inactive)	> 100 µM (inactive)	> 100 µM (inactive)	–
Cn1ccnc1S/C(=C\C=C(C#N)C#N)c1ccc(Cl)cc1	1.21 µM (inactive)	1.84 µM (inactive)	1.18 µM (inactive)	4.06 µM (inactive)	2.1 µM (inactive)	4.92 µM (inactive)	–	–	2.52 µM	2.22 µM (inactive)	1.27 µM (inactive)	5.37 µM (inactive)	6.04 µM (inactive)	1.13 µM (inactive)	1.04 µM (active)	1.67 µM (inactive)	0.693 µM (active)	2.06 µM (inactive)	0.698 µM (active)
CC[N+](C)(CC)CCNC(=O)C(O)(c1ccccc1)c1ccccc1	> 100 µM (inactive)	> 100 µM (inactive)	> 100 µM (inactive)	> 100 µM (inactive)	> 100 µM (inactive)	> 100 µM (inactive)	> 100 µM (inactive)	–	> 100 µM	> 100 µM (inactive)	–	35.6 µM (inactive)	> 100 µM (inactive)	> 100 µM (inactive)	> 100 µM (inactive)	> 100 µM (inactive)	> 100 µM (inactive)	72.9 µM (inactive)	> 100 µM (inactive)
Cc1cc(C)nc(NS(=O)(=O)c2ccc(NNc3c4ccccc4nc4c(C(=O)Nc5ccc(S(=O)(=O)Nc6ncccn6)cc5)cccc34)cc2)n1	27 µM (inactive)	31.9 µM (inactive)	32.5 µM (inactive)	29.5 µM (inactive)	33.7 µM (inactive)	26.7 µM (inactive)	22.5 µM (inactive)	31.3 µM (inactive)	32.7 µM	> 100 µM (inactive)	–	37.5 µM (inactive)	31.8 µM (inactive)	21.2 µM (inactive)	26.7 µM (inactive)	27.9 µM (inactive)	23.3 µM (inactive)	34.5 µM (inactive)	52.8 µM (inactive)
C=C1CC[C@@]2(C)[C@@H]([C@@H]1C)[C@H]1CC[C@@H]3[C@@]4(C)CC[C@H](O)C(C)(C)[C@@H]4CC[C@@]3(C)[C@]1(C)C[C@@H]2O	2.45 µM (inactive)	2.28 µM (inactive)	3.22 µM (inactive)	4.12 µM (inactive)	8.07 µM (inactive)	–	5 µM (inactive)	1.96 µM (inactive)	3.24 µM	3.27 µM (inactive)	2.16 µM (inactive)	–	4.57 µM (inactive)	5.16 µM (inactive)	3.25 µM (inactive)	3.9 µM (inactive)	2.11 µM (inactive)	3.65 µM (inactive)	2.13 µM (inactive)
CC(C)C(NCc1c(O)ccc2c(-c3ccccc3)cc(=O)oc12)C(=O)O (stereo not given)	> 100 µM (inactive)	> 100 µM (inactive)	> 100 µM (inactive)	> 100 µM (inactive)	> 100 µM (inactive)	> 100 µM (inactive)	> 100 µM (inactive)	> 100 µM (inactive)	> 100 µM	> 100 µM (inactive)	–	83.9 µM (inactive)	> 100 µM (inactive)	> 100 µM (inactive)	> 100 µM (inactive)	> 100 µM (inactive)	> 100 µM (inactive)	> 100 µM (inactive)	> 100 µM (inactive)
N=C(N)NCCCC(=O)O	> 100 µM (inactive)	> 100 µM (inactive)	> 100 µM (inactive)	> 100 µM (inactive)	–	–	> 100 µM (inactive)	> 100 µM (inactive)	> 100 µM	> 100 µM (inactive)	> 100 µM (inactive)	> 100 µM (inactive)	> 100 µM (inactive)	> 100 µM (inactive)	> 100 µM (inactive)	> 100 µM (inactive)	> 100 µM (inactive)	> 100 µM (inactive)	> 100 µM (inactive)
CC(=O)Oc1ccc2c(C)cc(=O)oc2c1OC(C)=O	> 100 µM (inactive)	25.3 µM (inactive)	34.5 µM (inactive)	33.9 µM (inactive)	17.7 µM (inactive)	–	30.6 µM (inactive)	48.9 µM (inactive)	21.1 µM	24.2 µM (inactive)	37.7 µM (inactive)	27 µM (inactive)	28.3 µM (inactive)	37.8 µM (inactive)	17.6 µM (inactive)	29.9 µM (inactive)	29.1 µM (inactive)	44 µM (inactive)	49.4 µM (inactive)

Reference: ChEMBL document CHEMBL1201862, “PubChem BioAssay data set” (2004)
